# According to ChEMBL document CHEMBL3792317, “Novel tetrazoloquinoline-rhodanine conjugates: Highly efficient synthesis and biological evaluation” (Bioorg Med Chem Lett, 2016):
# Tests used:
# Fusarium oxysporum = experiment: Antifungal activity against Fusarium oxysporum NCIM 1332 after 48 hrs by agar cup plate method; format: functional; conditions: NCIM 1332, 48 h
# Candida albicans = experiment: Antifungal activity against Candida albicans NCIM 3471 after 48 hrs by agar cup plate method; format: functional; conditions: NCIM 3471, 48 h
# Aspergillus niger = experiment: Antifungal activity against Aspergillus niger NCIM 1196 after 48 hrs by agar cup plate method; format: functional; conditions: NCIM 1196, 48 h
# [1] = system: Mycobacterium bovis BCG str. ATCC 35743; experiment: Antitubercular activity against dormant Mycobacterium bovis BCG ATCC 35743 at 10 ug/ml incubated for 40 mins by XTT Reduction Menadione Assay; format: functional
# [2] = system: Mycobacterium tuberculosis; experiment: Antitubercular activity against Mycobacterium tuberculosis H37Ra ATCC 25177 at 10 ug/ml incubated for 40 mins by XTT Reduction Menadione Assay; format: functional; conditions: H37Ra ATCC 25177, 40 min, read-out: GI
# [3] = system: Mycobacterium tuberculosis; experiment: Antitubercular activity against Mycobacterium tuberculosis H37Ra ATCC 25177 incubated for 40 mins by XTT Reduction Menadione Assay; format: functional; conditions: H37Ra ATCC 25177, 40 min
# [4] = system: Mycobacterium tuberculosis; experiment: Antitubercular activity against Mycobacterium tuberculosis H37Ra ATCC 25177 at 3 ug/ml incubated for 40 mins by XTT Reduction Menadione Assay; format: functional; conditions: H37Ra ATCC 25177, 40 min, read-out: GI
# Cryptococcus neoformans = experiment: Antifungal activity against Cryptococcus neoformans NCIM 576 after 48 hrs by agar cup plate method; format: functional; conditions: NCIM 576, 48 h
# [5] = system: Mycobacterium tuberculosis; experiment: Antitubercular activity against Mycobacterium tuberculosis H37Ra ATCC 25177 at 30 ug/ml incubated for 40 mins by XTT Reduction Menadione Assay; format: functional; conditions: H37Ra ATCC 25177, 40 min, read-out: GI
# [6] = Antitubercular activity against Mycobacterium bovis BCG ATCC 35743 incubated for 40 mins by XTT Reduction Menadione Assay; format: functional, Mycobacterium bovis BCG str. ATCC 35743; conditions: Mycobacterium tuberculosis variant bovis BCG, ATCC 35743, 40 min
# Aspergillus flavus = experiment: Antifungal activity against Aspergillus flavus NCIM 539 after 48 hrs by agar cup plate method; format: functional; conditions: NCIM 539, 48 h
# [7] = system: Mycobacterium bovis BCG str. ATCC 35743; experiment: Antitubercular activity against dormant Mycobacterium bovis BCG ATCC 35743 at 3 ug/ml incubated for 40 mins by XTT Reduction Menadione Assay; format: functional
# [8] = system: Mycobacterium bovis BCG str. ATCC 35743; experiment: Antitubercular activity against dormant Mycobacterium bovis BCG ATCC 35743 at 30 ug/ml incubated for 40 mins by XTT Reduction Menadione Assay; format: functional
# Escherichia coli = experiment: Antibacterial activity against Escherichia coli after 18 hrs by broth dilution method; format: functional
# Bacillus subtilis = experiment: Antibacterial activity against Bacillus subtilis after 18 hrs by broth dilution method; format: functional
# Pseudomonas fluorescens = experiment: Antibacterial activity against Pseudomonas fluorescens after 18 hrs by broth dilution method; format: functional
# Staphylococcus aureus = experiment: Antibacterial activity against Staphylococcus aureus after 18 hrs by broth dilution method; format: functional
# [9] = (§1) Cytotoxicity against human HeLa cells after 48 hrs by MTT assay; format: cell-based; conditions: HeLa cells
# HeLa = experiment: as §1; format: cell-based; conditions: hela, 48 h
# [10] = Cytotoxicity against human THP1 cells after 48 hrs by MTT assay; format: cell-based, THP-1; conditions: for GI50 at 48 h: THP1 cells; for GI90: thp-1, 48 h
# [11] = Cytotoxicity against human PANC1 cells after 48 hrs by MTT assay; format: cell-based, PANC-1; conditions: for GI50 at 48 h: PANC1 cells; for GI90: panc-1, 48 h
# [12] = (§2) Cytotoxicity against human A549 cells after 48 hrs by MTT assay; format: cell-based; conditions: A549 cells
# A549 = experiment: as §2; format: cell-based; conditions: a549, 48 h
# [13] = system: Mycobacterium tuberculosis; experiment: Antitubercular activity against active Mycobacterium tuberculosis H37Ra ATCC 25177 incubated for 40 mins by XTT Reduction Menadione Assay; format: functional; conditions: H37Ra ATCC 25177, 40 min
# [14] = system: Mycobacterium tuberculosis; experiment: Antitubercular activity against dormant Mycobacterium tuberculosis H37Ra ATCC 25177 incubated for 40 mins by XTT Reduction Menadione Assay; format: functional; conditions: H37Ra ATCC 25177, 40 min
SMILES,MIC (Fusarium oxysporum),MIC (Candida albicans),MIC (Aspergillus niger),growth inhibition (GI) [1],inhibition of growth at 10 µg/mL [2],MIC [3],inhibition of growth at 3 µg/mL [4],MIC (Cryptococcus neoformans),inhibition of growth at 30 µg/mL [5],MIC [6],MIC (Aspergillus flavus),growth inhibition (GI) [7],growth inhibition (GI) [8],GI50 at 48 h [9],GI90 (HeLa),GI50 at 48 h [10],GI90 [10],GI50 at 48 h [11],GI90 [11],GI50 at 48 h [12],also measured
COc1ccc2c(c1)cc(/C=C1\SC(=S)N(CC(=O)O)C1=O)c1nnnn12,100 µg/mL,50 µg/mL,50 µg/mL,32.1%,0.62%,> 250 µg/mL,7.3%,150 µg/mL,38%,> 250 µg/mL,150 µg/mL,-9.36%,49.8%,,,,,,,,
CC1(C)S[C@@H]2[C@H](NC(=O)[C@H](N)c3ccccc3)C(=O)N2[C@H]1C(=O)O [AMPICILLIN],,,,,,,,,,,,,,,,,,,,,MIC (Escherichia coli): 1.46 µg/mL; MIC (Bacillus subtilis): 10.3 µg/mL; MIC (Pseudomonas fluorescens): 4.36 µg/mL; MIC (Staphylococcus aureus): 1 µg/mL
COc1ccc2cc(/C=C3\SC(=S)N(CCC(=O)O)C3=O)c3nnnn3c2c1,150 µg/mL,100 µg/mL,50 µg/mL,20.5%,21.7%,> 250 µg/mL,0.02%,150 µg/mL,12.5%,> 250 µg/mL,125 µg/mL,18.8%,19%,,,,,,,,
CC(=O)O[C@H]1C(=O)[C@@]2(C)[C@H]([C@H](OC(=O)c3ccccc3)[C@]3(O)C[C@H](OC(=O)[C@H](O)[C@@H](NC(=O)c4ccccc4)c4ccccc4)C(C)=C1C3(C)C)[C@]1(OC(C)=O)CO[C@@H]1C[C@@H]2O [PACLITAXEL],,,,,,,,,,,,,,0.0048 µg/mL,0.075 µg/mL,0.137 µg/mL,5.814 µg/mL,0.128 µg/mL,5.715 µg/mL,< 0.004 µg/mL,GI90 (A549): 0.038 µg/mL
O=C1NC(=S)S/C1=C\c1cc2ccccc2n2nnnc12,150 µg/mL,150 µg/mL,100 µg/mL,-5.07%,71%,162 µg/mL,34%,75 µg/mL,51.8%,168 µg/mL,125 µg/mL,-8.27%,-15.7%,> 100 µg/mL,> 100 µg/mL,> 100 µg/mL,> 100 µg/mL,> 100 µg/mL,> 100 µg/mL,79.2 µg/mL,MIC (Escherichia coli): 212 µg/mL; MIC (Bacillus subtilis): 204 µg/mL; GI90 (A549): > 100 µg/mL; MIC (Pseudomonas fluorescens): 186 µg/mL; IC90 [13]: > 250 µg/mL; IC90 [14]: 162 µg/mL; MIC (Staphylococcus aureus): 153 µg/mL
Cc1ccc2c(c1)cc(/C=C1\SC(=S)N(CC(=O)O)C1=O)c1nnnn12,100 µg/mL,25 µg/mL,150 µg/mL,35.3%,16.3%,88.1 µg/mL,17.5%,100 µg/mL,36.7%,84.4 µg/mL,50 µg/mL,20.2%,-14.8%,> 100 µg/mL,> 100 µg/mL,> 100 µg/mL,> 100 µg/mL,> 100 µg/mL,> 100 µg/mL,> 100 µg/mL,GI90 (A549): > 100 µg/mL; IC90 [13]: 49.2 µg/mL; IC90 [14]: 88.1 µg/mL
Cc1cccc2cc(/C=C3\SC(=S)N(CCC(=O)O)C3=O)c3nnnn3c12,100 µg/mL,100 µg/mL,75 µg/mL,-11.4%,15.5%,192 µg/mL,-0.39%,50 µg/mL,36.9%,198 µg/mL,50 µg/mL,-8.42%,-8.69%,,,,,,,,
O=C(O)CCN1C(=O)/C(=C/c2cc3ccccc3n3nnnc23)SC1=S,125 µg/mL,100 µg/mL,150 µg/mL,21.6%,17.7%,174 µg/mL,-1.77%,175 µg/mL,48.9%,182 µg/mL,150 µg/mL,18.8%,47.9%,,,,,,,,
